Test results reported in ChEMBL document CHEMBL2150873, “Identification of imidazo-pyrrolopyridines as novel and potent JAK1 inhibitors” (J Med Chem, 2012).

How the values were obtained:
[1] = Lipophilicity, log D of the compound after 1 hr by LC/MS/MS analysis at pH 7.2; format: physicochemical; details: buffer
[2] = in vitro; details: human, liver microsomes, t1/2
[3] = Apparent permeability from apical to basal side of MDCK cells at 10 uM; format: ADME, cell-based, Canis lupus familiaris; details: dog
[4] = Half life in Sprague-Dawley rat hepatocytes at 1 uM by LC/MS/MS analysis; format: ADME, cell-based, Liver, Hepatocyte
[5] = Dose normalized clearance in Sprague-Dawley rat at 1 mg/kg, iv; format: ADME, organism-based; set-up: dose 1 mg/kg, route intravenous; details: in vivo, read-out: Dose normalized clearance
[6] = tested on: Rattus norvegicus; assay: Dose normalized AUC in Sprague-Dawley rat at 5 mg/kg, po; format: ADME, organism-based; set-up: dose 5 mg/kg, route oral; details: in vivo
[7] = tested on: Rattus norvegicus; assay: Dose normalized Cmax in Sprague-Dawley rat at 5 mg/kg, po; format: ADME, organism-based; set-up: dose 5 mg/kg, route oral; details: in vivo
[8] = Dose normalized volume of distribution at steady state in Sprague-Dawley rat at 1 mg/kg, iv and 5 mg/kg, po; format: ADME, organism-based; details: in vivo, read-out: Vdss/dose
[9] = Dose normalized oral bioavailability in Sprague-Dawley rat at 5 mg/kg; format: ADME, organism-based; details: in vivo, read-out: F/dose
[10] = tested on: Liver microsomes; details: human

What does the source list for `COC(=O)N[C@H]1CC[C@H](n2cnc3cnc4[nH]ccc4c32)CC1`?
logD at 1 h [1]: 1.9; half-life [2]: > 10 h

What does the source list for `CC(C)(C)OC(=O)N[C@@H]1CC[C@@H](n2cnc3cnc4[nH]ccc4c32)C1`?
logD at 1 h [1]: 2.99; Papp A→B at 10 µM [3]: 11.2 ×10⁻⁶ cm/s; half-life at 1 µM [4]: 2.2 h; clearance [5]: 140 mL/min/kg; AUC/dose [6]: 1.3 µM·h; Cmax/dose [7]: 1100 nM; Vd [8]: 2.53 L/kg; bioavailability [9]: 73%; t1/2 [10]: 5.6 h

Which results are given for `N#CCC(=O)N1CCC[C@@H](n2cnc3cnc4[nH]ccc4c32)C1`?
logD at 1 h [1]: 0.39; Papp A→B at 10 µM [3]: 0.3 ×10⁻⁶ cm/s; half-life at 1 µM [4]: > 10 h; clearance [5]: 85 mL/min/kg; AUC/dose [6]: 0.3 µM·h; Cmax/dose [7]: 50 nM; Vd [8]: 1.87 L/kg; bioavailability [9]: 5%; half-life [2]: 1.4 h

With `c1ccc(CN2CCC(n3cnc4cnc5[nH]ccc5c43)CC2)cc1` as the molecule, how does the logD at 1 h [1] read?
The logD at 1 h was 2.9.

And the Papp A→B at 10 µM [3]?
The Papp A→B at 10 µM was 32.3 ×10⁻⁶ cm/s.

And the half-life at 1 µM [4]?
The half-life at 1 µM was 0.5 h.

And the clearance [5]?
Its clearance is 170 mL/min/kg.

And the Cmax/dose [7]?
Its Cmax/dose is 40 nM.

What about the Vd [8] of the same molecule?
The Vd was 6.39 L/kg.

And the bioavailability [9]?
The bioavailability was under 1%.

And the half-life [2]?
Its half-life is 0.8 h.

With `c1ncc(CN2CCC(n3cnc4cnc5[nH]ccc5c43)CC2)cn1` as the molecule, how does the half-life [2] read?
The half-life was 4 h.

For `N#CCC(=O)N1CCC(n2cnc3cnc4[nH]ccc4c32)CC1`, which half-life [2] is on record?
Its half-life is 2 h.

With `O=C(c1ccccc1)N1CCC(n2cnc3cnc4[nH]ccc4c32)CC1` as the molecule, how does the half-life [2] read?
The half-life was 1.4 h.

For `CC(C)CC(=O)N1CCC(n2cnc3cnc4[nH]ccc4c32)CC1`, which half-life [2] is on record?
The half-life was 0.5 h.

Which half-life [2] does the source give for `O=S(=O)(c1ccccc1)N1CCC(n2cnc3cnc4[nH]ccc4c32)CC1` here?
Its half-life is 0.7 h.

What does the source list for `CS(=O)(=O)N1CCC(n2cnc3cnc4[nH]ccc4c32)CC1`?
logD at 1 h [1]: 1.04; Papp A→B at 10 µM [3]: 1.2 ×10⁻⁶ cm/s; half-life at 1 µM [4]: > 10 h; clearance [5]: 45 mL/min/kg; AUC/dose [6]: 2.3 µM·h; Cmax/dose [7]: 2900 nM; Vd [8]: 1.46 L/kg; bioavailability [9]: 36%; half-life [2]: 2.2 h

Which half-life [2] does the source give for `CCN1CCC(n2cnc3cnc4[nH]ccc4c32)CC1` here?
The half-life was 2.5 h.

For `FC(F)(F)CN1CCC(n2cnc3cnc4[nH]ccc4c32)CC1`, which half-life [2] is on record?
The half-life was 3.8 h.

With `N#CCCN1CCC(n2cnc3cnc4[nH]ccc4c32)CC1` as the molecule, how does the logD at 1 h [1] read?
The logD at 1 h was 1.72.

What about the Papp A→B at 10 µM [3] of the same molecule?
Its Papp A→B at 10 µM is 8.2 ×10⁻⁶ cm/s.

What about the half-life at 1 µM [4] of the same molecule?
Its half-life at 1 µM is over 10 h.

And the clearance [5]?
The clearance was 96 mL/min/kg.

And the AUC/dose [6]?
The AUC/dose was 1.6 µM·h.

And the Cmax/dose [7]?
The Cmax/dose was 1800 nM.

What about the Vd [8] of the same molecule?
Its Vd is 2.37 L/kg.

And the bioavailability [9]?
The bioavailability was 48%.

And the half-life [2]?
The half-life was 7.5 h.

Which half-life [2] does the source give for `CN(C)CC(=O)N1CCC(n2cnc3cnc4[nH]ccc4c32)CC1` here?
The half-life was 1.5 h.

With `CN1CCC[C@@H]1C(=O)N1CCC(n2cnc3cnc4[nH]ccc4c32)CC1` as the molecule, how does the half-life [2] read?
The half-life was 2.8 h.

With `CN1CCC[C@H]1C(=O)N1CCC(n2cnc3cnc4[nH]ccc4c32)CC1` as the molecule, how does the half-life [2] read?
The half-life was 4.7 h.

Which half-life [2] does the source give for `CC(C)N1CCC[C@H]1C(=O)N1CCC(n2cnc3cnc4[nH]ccc4c32)CC1` here?
Its half-life is 1.3 h.

With `CN1CCCC[C@H]1C(=O)N1CCC(n2cnc3cnc4[nH]ccc4c32)CC1` as the molecule, how does the half-life [2] read?
The half-life was 3.5 h.

With `CC1(n2cnc3cnc4[nH]ccc4c32)CCNCC1` as the molecule, how does the half-life [2] read?
The half-life was over 10 h.

Which half-life [2] does the source give for `CC1(n2cnc3cnc4[nH]ccc4c32)CCN(Cc2cncnc2)CC1` here?
The half-life was 1.6 h.

With `CC1(n2cnc3cnc4[nH]ccc4c32)CCN(S(C)(=O)=O)CC1` as the molecule, how does the logD at 1 h [1] read?
The logD at 1 h was 1.14.

And the Papp A→B at 10 µM [3]?
The Papp A→B at 10 µM was 2.5 ×10⁻⁶ cm/s.

What about the half-life at 1 µM [4] of the same molecule?
The half-life at 1 µM was over 10 h.

And the clearance [5]?
The clearance was 82 mL/min/kg.

What about the AUC/dose [6] of the same molecule?
Its AUC/dose is 2.3 µM·h.

And the Cmax/dose [7]?
The Cmax/dose was 800 nM.

And the Vd [8]?
The Vd was 2.72 L/kg.

And the bioavailability [9]?
The bioavailability was 74%.

And the half-life [2]?
The half-life was over 10 h.

With `CC1(n2cnc3cnc4[nH]ccc4c32)CCN(CC(F)(F)F)CC1` as the molecule, how does the half-life [2] read?
Its half-life is 1.6 h.

With `CC1(n2cnc3cnc4[nH]ccc4c32)CCN(CCC#N)CC1` as the molecule, how does the half-life [2] read?
Its half-life is 2.3 h.

With `CC(C)(C)OC(=O)N[C@H]1CC[C@H](n2cnc3cnc4[nH]ccc4c32)CC1` as the molecule, how does the logD at 1 h [1] read?
Its logD at 1 h is 3.2.

What about the half-life [2] of the same molecule?
The half-life was 1.5 h.

For `N[C@H]1CC[C@H](n2cnc3cnc4[nH]ccc4c32)CC1`, which logD at 1 h [1] is on record?
The logD at 1 h was -0.44.

And the Papp A→B at 10 µM [3]?
The Papp A→B at 10 µM was 0.2 ×10⁻⁶ cm/s.

What about the half-life at 1 µM [4] of the same molecule?
The half-life at 1 µM was over 10 h.

And the clearance [5]?
Its clearance is 65 mL/min/kg.

What about the AUC/dose [6] of the same molecule?
Its AUC/dose is 0.22 µM·h.

And the Cmax/dose [7]?
The Cmax/dose was 20 nM.

And the Vd [8]?
The Vd was 13.9 L/kg.

And the bioavailability [9]?
The bioavailability was under 1%.

What about the half-life [2] of the same molecule?
Its half-life is 3.7 h.

Which half-life [2] does the source give for `N[C@H]1CC[C@@H](n2cnc3cnc4[nH]ccc4c32)CC1` here?
Its half-life is 5.5 h.

Which half-life [2] does the source give for `c1cc2c(ncc3ncn([C@H]4CC[C@H](N5CCOCC5)CC4)c32)[nH]1` here?
The half-life was 6.8 h.

For `c1cc2c(ncc3ncn([C@H]4CC[C@@H](N5CCOCC5)CC4)c32)[nH]1`, which half-life [2] is on record?
Its half-life is 3.7 h.

For `CC(C)C(=O)N[C@H]1CC[C@H](n2cnc3cnc4[nH]ccc4c32)CC1`, which half-life [2] is on record?
The half-life was 2.7 h.

Which half-life [2] does the source give for `c1cc2c(ncc3ncn([C@H]4CC[C@H](NCC5CC5)CC4)c32)[nH]1` here?
The half-life was 4.7 h.

For `N#CCCN[C@H]1CC[C@H](n2cnc3cnc4[nH]ccc4c32)CC1`, which logD at 1 h [1] is on record?
Its logD at 1 h is 0.97.

What about the Papp A→B at 10 µM [3] of the same molecule?
The Papp A→B at 10 µM was 1.5 ×10⁻⁶ cm/s.

And the half-life at 1 µM [4]?
The half-life at 1 µM was 9.8 h.

And the clearance [5]?
The clearance was 120 mL/min/kg.

And the AUC/dose [6]?
Its AUC/dose is 0.7 µM·h.

What about the Cmax/dose [7] of the same molecule?
The Cmax/dose was 600 nM.

What about the Vd [8] of the same molecule?
The Vd was 3.96 L/kg.

And the bioavailability [9]?
Its bioavailability is 28%.

What about the half-life [2] of the same molecule?
Its half-life is 5 h.

For `N#Cc1cccc(CN[C@H]2CC[C@H](n3cnc4cnc5[nH]ccc5c43)CC2)c1`, which half-life [2] is on record?
Its half-life is 0.8 h.

With `CS(=O)(=O)N[C@H]1CC[C@H](n2cnc3cnc4[nH]ccc4c32)CC1` as the molecule, how does the half-life [2] read?
The half-life was 1.8 h.

Which half-life [2] does the source give for `COC(=O)N(C)[C@H]1CC[C@H](n2cnc3cnc4[nH]ccc4c32)CC1` here?
Its half-life is over 10 h.

Which half-life [2] does the source give for `CC(C)(C)OC(=O)N[C@@H]1CC[C@@H](n2cnc3cnc4[nH]ccc4c32)C1` (racemic) here?
The half-life was 5.5 h.

What does the source list for `COC(=O)N[C@@H]1CC[C@@H](n2cnc3cnc4[nH]ccc4c32)C1` (racemic)?
logD at 1 h [1]: 1.2; half-life [2]: 5.8 h

With `CC(C)(C)OC(=O)N[C@H]1CC[C@@H](n2cnc3cnc4[nH]ccc4c32)C1` (racemic) as the molecule, how does the half-life [2] read?
Its half-life is 1.8 h.
